From US12559769B2, “Methods and compositions for the activation of tumor cytotoxicity via human gamma-delta t-cells” (priority 2017, dated 2026) come the findings set out here.

The test system of the assay is Vγ9Vδ2 T cells. Put plainly: Activation of Vγ9Vδ2 T cells (TNF-α, flow cytometry) by THP-1 monocytic leukemia cells co-cultured with expanded PBMC. Type of assay: cell-based, human. The protocol:
THP-1 cells (2×10^5 cells) were transduced with LV-control or LV-miR30 FDPS #1 (SEQ ID NO: 68) for 7 days. Cells were treated with or without 1 μM zoledronic acid. After 24 hours, the transduced THP-1 cells were co-cultured for 4 hours with 2×10^5 PBMC cells in 5 mL round-bottom tubes. The PBMC cells had been pre-stimulated with zoledronic acid plus IL-2 for at least 11 days to expand Vγ9Vδ2 T cells. After staining for Vγ9Vδ2 and TNF-α using fluorophore-conjugated anti TCR-Vδ2 and anti-TNF-α antibody, cells were analyzed via flow cytometry. Live cells were gated; Vδ2+ and TNF-α+ cells were identified on a dot blot. The activated cytotoxic Vγ9Vδ2 T cells appeared in the upper right quadrant of the flow cytograms. Without zoledronic acid, LV-control stimulated 2.44% of TNF-α expressing Vγ9Vδ2 T cells and LV-miR30 FDPS #1 (SEQ ID NO: 68) stimulated 28.4%. With zoledronic acid treatment, LV-control stimulated 23.8% of TNF-α expressing Vγ9Vδ2 T cells and LV-miR30 FDPS #1 (SEQ ID NO: 68) stimulated 61.4%.
THP-1 cells were transduced with LV-control or LV-FDPS shRNA #4 (SEQ ID NO: 4) or Lv-GGPS1 shRNA #1 (SEQ ID NO: 70) for 3 days. Two days after transduction, cells were treated with or without 1 μM zoledronic acid. After 24 hours, the transduced THP-1 cells were co-cultured for 4 hours with 5×10^5 PBMC cells in a round bottom 96 well plate. The PBMC cells had been pre-stimulated with zoledronic acid plus IL-2 for at least 11 days to expand Vγ9Vδ2 T cells. After staining for Vγ9Vδ2 and TNF-α using fluorophore-conjugated anti TCR-Vδ2 and anti-TNF-α antibody, cells were analyzed via flow cytometry. Live cells were gated; Vδ2+ and TNF-α+ cells were identified on a dot blot. The activated cytotoxic Vγ9Vδ2 T cells appeared in the upper right quadrant of the flow cytograms. Without zoledronic acid, LV-control stimulated 1.33% of TNF-α expressing Vγ9Vδ2 T cells whereas Lv-FDPS shRNA #4 (SEQ ID NO: 4) stimulated 2.49%, Lv-GGPS1 #1 shRNA (SEQ ID NO: 70) stimulated 1.22%, and both combined stimulated 1.91%. With zoledronic acid treatment, Lv-control stimulated 5.74% of TNF-α expressing Vγ9Vδ2 T cells, whereas Lv-FDPS shRNA #4 (SEQ ID NO: 4) stimulated 10.8%, Lv-GGPS1 shRNA #1 (SEQ ID NO: 70) stimulated 4.5%, and both combined stimulated 11.5%.
ZA is a small molecule inhibitor of squalene synthase in the pathway committed to sterol synthesis. THP-1 cells were treated with either the FDPS inhibitor Zol (10 μM), the famesyl transferase inhibitor FTI (10 μM), or ZA (50 μM) for 24 hours. THP-1 cells (2.5×10^5) were co-cultured with 2.5×10^5 PBMC cells in a round bottom 96 well plate for 5 hours. The PBMC cells had been pre-stimulated with zoledronic acid plus IL-2 for at least 11 days to expand Vγ9Vδ2 T cells. After staining for Vγ9Vδ2 and TNF-α using fluorophore-conjugated anti TCR-Vδ2 and anti-TNF-α antibody, cells were analyzed via flow cytometry. Live cells were gated; Vδ2+ and TNF-α+ cells were identified on a dot blot. The activated cytotoxic Vγ9Vδ2 T cells appeared in the upper right quadrant of the flow cytograms. Untreated cells stimulated 3.08% of TNF-α expressing Vγ9Vδ2 T cells, whereas zoledronic acid treatment stimulated 40.1%, FT1277 treatment stimulated 11.7%, and zaragozic acid stimulated 2.13%.

Where [1] appears, read: Example 24, FIG. 28, THP-1 cells treated 10 μM for 24 hours, untreated cells 3.08%.

Structures are written as SMILES.

In the case of `COC(=O)[C@H](CCSC)NC(=O)c1ccc(NC[C@@H](N)CS)cc1-c1ccccc1` [FT1277], under setting [1], the “percent of TNF-α expressing Vγ9Vδ2 T cells” value turned out to be 11.7%. Take `C=C(CC[C@]12O[C@H](C(=O)O)[C@@](O)(C(=O)O)[C@](C(=O)O)(O1)[C@H](OC(=O)/C=C/[C@@H](C)C[C@@H](C)CC)[C@H]2O)[C@@H](OC(C)=O)[C@H](C)Cc1ccccc1` [zaragozic acid]: the “percent of TNF-α expressing Vγ9Vδ2 T cells” value (Example 24, FIG. 28, THP-1 cells treated 50 μM for 24 hours, untreated cells 3.08%) is listed as 2.13%.

On to `O=P(O)(O)C(O)(Cn1ccnc1)P(=O)(O)O` [zoledronic acid], for which the “percent of TNF-α expressing Vγ9Vδ2 T cells” value is, setting by setting: (Example 17, LV-control transduced THP-1 cells, 1 μM zoledronic acid) 23.8%; (Example 21, Lv-control transduced THP-1 cells, 1 μM zoledronic acid) 5.74%; under setting [1], 40.1%.
